From patent US11358969B2, “Indole AHR inhibitors and uses thereof” (Ikena Oncology, Inc., priority 2017, dated 2022) come the findings set out here.

“And” between values parts separate entries of the source, which are not always exact repeats. Identical values can stand only once. Bounds are passed on as bounds.

As a reminder, the IC50 is the concentration that inhibits the measured activity by half. Read a low IC50 as greater potency.

One data set addresses T1, AHR (UniProt P35869).
T1 construct: IC50
T1 sequence (P35869 1-848): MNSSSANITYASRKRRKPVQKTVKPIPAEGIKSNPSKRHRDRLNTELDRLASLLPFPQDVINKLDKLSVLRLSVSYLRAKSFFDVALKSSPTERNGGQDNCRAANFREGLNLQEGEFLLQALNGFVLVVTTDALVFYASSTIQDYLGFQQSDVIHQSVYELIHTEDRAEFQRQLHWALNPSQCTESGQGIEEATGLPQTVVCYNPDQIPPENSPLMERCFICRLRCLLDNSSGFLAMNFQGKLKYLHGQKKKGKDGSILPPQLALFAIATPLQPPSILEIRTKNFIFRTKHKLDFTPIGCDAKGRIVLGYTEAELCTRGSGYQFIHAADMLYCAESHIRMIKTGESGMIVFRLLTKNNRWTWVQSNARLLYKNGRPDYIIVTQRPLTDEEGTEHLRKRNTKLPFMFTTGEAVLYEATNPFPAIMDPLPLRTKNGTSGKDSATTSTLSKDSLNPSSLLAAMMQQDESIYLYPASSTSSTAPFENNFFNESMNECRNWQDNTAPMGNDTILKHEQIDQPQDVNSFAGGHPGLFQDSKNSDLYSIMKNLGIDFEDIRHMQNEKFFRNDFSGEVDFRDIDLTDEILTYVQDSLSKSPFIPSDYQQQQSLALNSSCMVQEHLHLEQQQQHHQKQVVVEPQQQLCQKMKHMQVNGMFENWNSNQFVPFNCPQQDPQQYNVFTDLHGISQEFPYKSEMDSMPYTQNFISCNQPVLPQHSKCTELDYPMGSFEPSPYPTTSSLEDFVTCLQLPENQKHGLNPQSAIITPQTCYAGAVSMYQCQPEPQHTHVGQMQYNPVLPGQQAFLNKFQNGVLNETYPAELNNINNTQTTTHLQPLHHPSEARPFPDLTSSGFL
Kind of data set: DRE-Luciferase Reporter Assay (Alternate Method) (Example 1B). The conditions noted are these: cell line and AHR activating ligand not specified. It counts as cell-based, murine or human. Background: In a reporter assay the amount or activity of a reporter protein is the signal.

A short description of data set [1]: In Vitro Mouse liver S9 Metabolic Stability Assay (Example 1D). It counts as in vitro ADME. The conditions noted are these: CD-1 mouse liver S9, 1 μM compound, 1 mg/mL S9 protein, 37° C., NADPH regenerating system, UDPGA, PAPS. The method, then:
CD-1 mouse liver S9 were purchased from Corning or XenoTech LLC or BioreclamationIVT, LLC or WuXi prepared. The cells were stored at −80° C. in a freezer before use. β-Nicotinamide adenine dinucleotide phosphate (NADP), Glucose 6-phosphate (G6P), Glucose 6-phosphate dehydrogenase from yeast (G6PDH), Uridine 5′-diphophoglucuronic acid trisodium salt (UDPGA) and Adenosine 3′-phosphate 5′-phosphosulfate lithium salt hydrate (PAPS) were available commercially from Sigma.
Compounds were diluted in DMSO to make 10 mM stock solution. 5 μL of this stock solution (10 mM, DMSO) was diluted with 45 μL DMSO and 450 μL 50% Methanol/Water to make intermediate stock solution (100 μM, 45% MeOH, 10% DMSO). 50 μL of intermediate stock solution was diluted with 450 μL 100 mM phosphate buffer to make a final stock solution (10 μM, 4.5% MeOH, 1% DMSO). 10 uL of final stock solution was added to 90 uL liver S9 system (final concentration of 1 μM, 0.45% MeOH, 0.1% DMSO).
Test compounds were incubated at 37° C. with liver S9 (pooled from multiple donors) at 1 μM in the presence of a NADPH regenerating system, UDPGA, and PAPS at 1 mg/mL S9 protein. Time samples (0 and 60 minutes) were removed and immediately mixed with cold acetonitrile containing internal standard (IS). Samples were analyzed by LC/MS/MS and disappearance of test compounds were assessed based on peak area ratios of analyte /IS (no standard curve). All samples were injected and analyzed using LC-MS/MS. The analyte/internal standard peak area ratios were converted to percentage remaining (% Remaining) with the following equation: % Remaining at 60 min=(Peak area ratio of analyte to IS at 60 min/Peak area ratio of analyte to IS at t=0)×100%. Table 5. Mouse Stability Data According to Example 1D.

Consider `CC(C)c1cnc2c(N[C@@H]3CCc4[nH]c5ccccc5c4C3)nc(-c3cncc(F)c3)cn12` [I-30, (3R)—N-[6-(5-Fluoro-3-pyridyl)-3-isopropyl-imidazo[1,2-a]pyrazin-8-yl]-2,3,4,9-tetrahydro-1H-carbazol-3-amine], for which the IC50 against AHR was less than 500 nM. Further, in data set [1], the “Mouse S9 Stability: % Remaining After 60 Minutes” value is 11%.

Consider `Fc1cncc(-c2nc(N[C@@H]3CCc4[nH]c5ccccc5c4C3)cc(N3CCCC3)n2)c1` [I-36, (3R)—N-[2-(5-Fluoro-3-pyridyl)-6-pyrrolidin-1-yl-pyrimidin-4-yl]-2,3,4,9-tetrahydro-1H-carbazol-3-amine], for which, on AHR, the IC50 was more than 1500 nM. Moreover, the “Mouse S9 Stability: % Remaining After 60 Minutes” value in data set [1] was determined as 29%.

For the molecule `CC(C)c1cnn2c(NCCc3c[nH]c4ccccc34)cc(-c3ccccc3)nc12` [I-45, N-[2-(1H-indol-3-yl)ethyl]-3-isopropyl-5-phenyl-pyrazolo[1,5-a]pyrimidin-7-amine], the IC50 on AHR was less than 500 nM. For the same molecule, the “Mouse S9 Stability: % Remaining After 60 Minutes” value in data set [1] was 19%.

The molecule `Fc1cncc(-c2cc(NCCc3c[nH]c4ccccc34)n3ncc(C(F)(F)F)c3n2)c1` [I-47, 5-(5-Fluoro-3-pyridyl)-N-[2-(1H-indol-3-yl)ethyl]-3-(trifluoromethyl)pyrazolo[1,5-a]pyrimidin-7-amine] had an IC50 against AHR of less than 500 nM. Also, the “Mouse S9 Stability: % Remaining After 60 Minutes” value in data set [1] was found to be 50%.

As to `CN1CCN(c2cc(NCCc3c[nH]c4ccccc34)nc(-c3cncc(F)c3)n2)CC1` [I-67, 2-(5-Fluoro-3-pyridyl)-N-[2-(1H-indol-3-yl)ethyl]-6-(4-methylpiperazin-1-yl)pyrimidin-4-amine], the IC50 at AHR was less than 500 nM. Also, the “Mouse S9 Stability: % Remaining After 60 Minutes” value in data set [1] was 5% and 1%.

Regarding `CN1CCN(C(=O)c2cnn3c(NCCc4c[nH]c5ccccc45)cc(-c4cncc(F)c4)nc23)CC1` [I-68, [5-(5-Fluoro-3-pyridyl)-7-[2-(1H-indol-3-yl)ethylamino]pyrazolo[1,5-a]pyrimidin-3-yl]-(4-methylpiperazin-1-yl)methanone], on AHR, the IC50 lay in the range of 500 to 1000 nM. Also, in data set [1], the “Mouse S9 Stability: % Remaining After 60 Minutes” value turned out to be 4%.

In turn, `CC(C)Oc1cc(-c2cncc(F)c2)nc(NCCc2c[nH]c3ccccc23)n1` [I-72, 4-(5-Fluoro-3-pyridyl)-N-[2-(1H-indol-3-yl)ethyl]-6-isopropoxy-pyrimidin-2-amine] returned an IC50 on AHR of less than 500 nM. Moreover, the “Mouse S9 Stability: % Remaining After 60 Minutes” value in data set [1] came out at 3%.

On AHR, `NC(=O)c1cnn2c(NCCc3c[nH]c4ccccc34)cc(-c3cncc(F)c3)nc12` [I-78, 5-(5-Fluoro-3-pyridyl)-7-[2-(1H-indol-3-yl)ethylamino]pyrazolo[1,5-a]pyrimidine-3-carboxamide] showed an IC50 of less than 500 nM. Besides, the “Mouse S9 Stability: % Remaining After 60 Minutes” value in data set [1] was determined as 1%.

In the case of `CC(C)c1cnn2c(NCCc3c[nH]c4ccccc34)cc(-c3cncc(C#N)c3)nc12` [I-81, 5-[7-[2-(1H-indol-3-yl)ethylamino]-3-isopropyl-pyrazolo[1,5-a]pyrimidin-5-yl]pyridine-3-carbonitrile], the IC50 against AHR was less than 500 nM. Further, the “Mouse S9 Stability: % Remaining After 60 Minutes” value in data set [1] worked out at 2%.

Regarding `CC(C)(C)c1cnn2c(NCCc3c[nH]c4ccccc34)cc(-c3cncc(F)c3)nc12` [I-90, 3-tert-Butyl-5-(5-fluoro-3-pyridyl)-N-[2-(1H-indol-3-yl)ethyl]pyrazolo[1,5-a]pyrimidin-7-amine], the IC50 on AHR was less than 500 nM. For the same molecule, in data set [1], the “Mouse S9 Stability: % Remaining After 60 Minutes” value is on record as 11%.

With `CON(C)C(=O)c1cnn2c(NCCc3c[nH]c4ccccc34)cc(-c3cncc(F)c3)nc12` [I-92, 5-(5-Fluoro-3-pyridyl)-7-[2-(1H-indol-3-yl)ethylamino]-N-methoxy-N-methyl-pyrazolo[1,5-a]pyrimidine-3-carboxamide], the IC50 at AHR is less than 500 nM. In data set [1], the “Mouse S9 Stability: % Remaining After 60 Minutes” value was 0%.

As for `CC(C)c1cnn2c(NCCc3c[nH]c4c(F)cc(F)cc34)nc(-c3cncc(F)c3)nc12` [I-96, N-[2-(5,7-Difluoro-1H-indol-3-yl)ethyl]-2-(5-fluoro-3-pyridyl)-8-isopropyl-pyrazolo[1,5-a][1,3,5]triazin-4-amine], the IC50 on AHR is less than 500 nM. Also, in data set [1], the “Mouse S9 Stability: % Remaining After 60 Minutes” value was 36%.

For the molecule `CC(C)c1cnn2c(NCCc3c[nH]c4cccnc34)nc(-c3cncc(F)c3)nc12` [I-101, 2-(5-Fluoro-3-pyridyl)-8-isopropyl-N-[2-(1H-pyrrolo[3,2-b]pyridin-3-yl)ethyl]pyrazolo[1,5-a][1,3,5]triazin-4-amine], on AHR, the IC50 was less than 500 nM. For the same molecule, in data set [1], the “Mouse S9 Stability: % Remaining After 60 Minutes” value is listed as 1%.

Molecule `Fc1cncc(-c2nc(NCCc3c[nH]c4ccccc34)cc(N3CCCC3)n2)c1` [I-105, 2-(5-Fluoro-3-pyridyl)-N-[2-(1H-indol-3-yl)ethyl]-6-pyrrolidin-1-yl-pyrimidin-4-amine] came in with an IC50 on AHR of less than 500 nM. Also, the “Mouse S9 Stability: % Remaining After 60 Minutes” value in data set [1] amounted to 8%.

As to `CC(C)c1cnc2c(NCCc3c[nH]c4ccccc34)nc(-c3cncc(F)c3)cn12` [I-106, 6-(5-Fluoro-3-pyridyl)-N-[2-(1H-indol-3-yl)ethyl]-3-isopropyl-imidazo[1,2-a]pyrazin-8-amine], at AHR, the 50% inhibitory concentration (IC50) is less than 500 nM. Further, the “Mouse S9 Stability: % Remaining After 60 Minutes” value in data set [1] was found to be 1%.

Turning to `CC(C)c1cnn2c(NC3Cc4ccc(O)cc4C3)cc(-c3cncc(F)c3)nc12` (centres unmarked) [I-109, 2-[[5-(5-Fluoro-3-pyridyl)-3-isopropyl-pyrazolo[1,5-a]pyrimidin-7-yl]amino]indan-5-ol], the IC50 against AHR is less than 500 nM. The “Mouse S9 Stability: % Remaining After 60 Minutes” value in data set [1] worked out at 10%.

Turning to `CC(C)c1ccc2c(N[C@@H]3CCc4[nH]c5ccccc5c4C3)nc(-c3cncc(F)c3)nn12` [I-156], the IC50 at AHR is more than 1500 nM. Moreover, the “Mouse S9 Stability: % Remaining After 60 Minutes” value in data set [1] is given as 28%.

Take `CC(C)n1cnc2c(N[C@@H]3CCc4[nH]c5ccccc5c4C3)nc(-c3cncc(F)c3)nc21` [I-162, (3R)—N-[2-(5-Fluoro-3-pyridyl)-9-isopropyl-purin-6-yl]-2,3,4,9-tetrahydro-1H-carbazol-3-amine]: on AHR, the IC50 was less than 500 nM. The “Mouse S9 Stability: % Remaining After 60 Minutes” value in data set [1] is recorded as 54%.

At AHR, `Cc1cnn2c(NCCc3c[nH]c4ccccc34)nc(-c3cncc(F)c3)nc12` [I-164, 2-(5-Fluoro-3-pyridyl)-N-[2-(1H-indol-3-yl)ethyl]-8-methyl-pyrazolo[1,5-a][1,3,5]triazin-4-amine] yielded an IC50 of less than 500 nM. Besides, the “Mouse S9 Stability: % Remaining After 60 Minutes” value in data set [1] is given as 0%.

`Fc1cncc(-c2nc(N[C@@H]3CCc4[nH]c5ccccc5c4C3)n3nccc3n2)c1` [I-165, (3R)—N-[2-(5-Fluoro-3-pyridyl)pyrazolo[1,5-a][1,3,5]triazin-4-yl]-2,3,4,9-tetrahydro-1H-carbazol-3-amine] registered an IC50 at AHR of less than 500 nM. The “Mouse S9 Stability: % Remaining After 60 Minutes” value in data set [1] came out at 3%.

As to `CC(C)c1cnn2c(NCCc3cc[nH]c3)nc(-c3cncc(F)c3)nc12` [I-166, 2-(5-Fluoro-3-pyridyl)-8-isopropyl-N-[2-(1H-pyrrol-3-yl)ethyl]pyrazolo[1,5-a][1,3,5]triazin-4-amine], the IC50 on AHR was less than 500 nM. Besides, the “Mouse S9 Stability: % Remaining After 60 Minutes” value in data set [1] is reported as 4%.

`CC(C)(O)c1cnn2c(NCCc3c[nH]c4ccccc34)cc(-c3cncc(F)c3)nc12` [I-177, 2-[5-(5-Fluoro-3-pyridyl)-7-[2-(1H-indol-3-yl)ethylamino]pyrazolo[1,5-a]pyrimidin-3-yl]propan-2-ol] had an IC50 at AHR of less than 500 nM. Further, the “Mouse S9 Stability: % Remaining After 60 Minutes” value in data set [1] was determined as 2%.
